Data taken from publication PMC12591169 (Advanced Science, 2025).
Entries after “also recorded” stand apart in the source; their conditions may differ. Non-standard residues stand in square brackets, D forms with d. pT = C[C@@H](OP(=O)(O)O)[C@H](N)C(=O)O

Assays:
14‐3‐3σ = experiment: HDX‐MS of 14‐3‐3σ with and without ERα or LRRK2 peptide; format: binding; conditions: for protection of 14‐3‐3σ from deuterium exchange upon peptide binding: 14‐3‐3σ 100 µM, ERα 100 µM or LRRK2 200 µM, diluted tenfold into 100 mM ammonium acetate 99.9% D2O pD 7.2, room temperature, 10 min, 5 h, 24 h, 10% DMSO, n = 3 (LRRK2 10 min: duplicate); for protection of 14‐3‐3σ from deuterium exchange at H8 upon peptide binding: H8, located distally from the binding groove
Procedure: (§1) Maximally deuterated samples were analyzed in triplicate.
(§2) Eluted peptides were directly infused into the mass spectrometer. Mobile phases were kept on ice.
(§3) (Thermo Fisher Scientific). […] Peptides with >20 residues were excluded from analysis.

14‐3‐3 [1] = conditions: cited from earlier work
14‐3‐3 [2] = conditions: FRET; cited from earlier work
14-3-3σ [3] = experiment: Native MS of 14‐3‐3σ with ERα; format: binding; conditions: 14‐3‐3 5 µM, 1:1 ratio, 100 mM ammonium acetate (pH 6.8), 0.5% DMSO, absence of FC-A; 3 replicates
Procedure: (§4) LC‐MS grade dimethyl sulfoxide (DMSO) was purchased from Fisher Scientific. Lypholized ERα581‐595 15mer peptide (Ac‐[…](pT)V‐COOH, Synpeptide Ltd) and lypholized LRRK2_928‐942 15mer peptide (Ac‐NLQRHSN(pS)LGPIFDH‐CONH2, Synpeptide Ltd) were diluted into 100 mM ammonium acetate to make peptide stocks of 1 mM and stored at ‐20 °C prior to use. Fusicoccin A (FC‐A) was provided as a gift from Yusuke Higuchi. It was obtained as a metabolite of wildtype Phomopsis amygdali and genetically modified Phomopsis amygdali Niigata‐2 as reported previously^[ [62] ^] FC‐A stocks were stored in 100% DMSO at […] at ‐80 °C. 14‐3‐3 was buffer exchanged into 100 mM ammonium acetate (pH 6.8) using a 10 kDa molecular weight cut‐off Amicon Ultra centrifugal filter (Merck Millipore) and stored at ‐80 °C prior to use. To form the 14‐3‐3/ERα complex, 14‐3‐3 (5 µM) was incubated with ERα (1:1 ratio) in the presence and absence of FC‐A (50 µM) (1:1:10 ratio) for 10 min on ice or at 10 min, 5 h or 24 h at room temperature to mimic HDX conditions (Figure S16, Supporting Information). To form the 14‐3‐3/LRRK2 complex, 14‐3‐3 (5 µM) was incubated with LRRK2 (1:2 ratio) in the presence and absence of FC‐A (50 µM) (1:2:10 ratio). 14‐3‐3 binding ratios were optimized to enable single and double‐bound complex formation. 14‐3‐3 protein complexes were directly infused into the mass spectrometer. […]

14‐3‐3/ERα = conditions: cited from earlier work
Excerpt: (§5) Overall, we have highlighted the usefulness of applying HDX‐MS to characterize molecular glues. […] This information was captured on minute‐hour HDX‐MS timescales; however, it is important to optimize HDX‐MS timescales when applying this method to study alternate protein systems. Indeed, shorter timescales might be preferential to capture the most valuable information.

14‐3‐3 [4] = conditions: binary complex, without FC‐A; read-out: Kd for the binary complex 14‐3‐3/ERα; cited from earlier work
Excerpt: as §5

14‐3‐3ζ /E6 oncoprotein = conditions: crystallography; cited from earlier work
14‐3‐3/LRRK2 complex [5] = conditions: HDX‐MS, 14‐3‐3σ 100 µM, LRRK2 200 µM, FC‐A 1 mM
Procedure: To form the 14‐3‐3/LRRK2 complex, 14‐3‐3σ in 25 mM HEPES, 200 mM NaCl, and 10 mM MgCl2 pH 8.0 (100 µM) was incubated with LRRK2 (200 µM) for 10 min on ice. To form the stabilized complex, 14‐3‐3σ (100 µM) was incubated with LRRK2 (200 µM) and FC‐A (1 mM) for 10 min on ice. Control incubations with 14‐3‐3σ (100 µM) in isolation were also performed. A final concentration of 10% DMSO was used for all experiments.
Deuterium labelling was carried out by diluting 14‐3‐3, 14‐3‐3/ERα, 14‐3‐3/ERα/FC‐A, 14‐3‐3/LRRK2 and 14‐3‐3/LRRK2/FC‐A tenfold with 100 mM ammonium acetate 99.9% D2O pD 7.2 and incubating for 10 min, 5 h, and 24 h at room temperature. The reaction was quenched by removal of 50 µL protein complex at each time‐point and adding 30 µL 4 M urea, 200 mM potassium phosphate buffer, pH 2.4, followed by flash freezing in liquid nitrogen and stored at ‐80 °C. […] Each time point was analysed in triplicate by LC‐MS with the exception of the 10‐min timepoint for LRRK2, analysed in duplicate. Non‐deuterated control samples were analysed in triplicate by LC‐MS for ERα complexes and duplicate for LRRK2 complexes.
Maximally deuterated samples were prepared by buffer exchanging 14‐3‐3 into 100 mM ammonium acetate 99.9% D2O pD 7.2 at 20 °C using a 10 kDa molecular weight cut‐off Amicon Ultra centrifugal filter (Merck Millipore). […] Maximally deuterated samples were analyzed in triplicate. […]

14-3-3σ/ERα = conditions: 14-3-3:ERα:FC-A 1:1:10, 14‐3‐3 5 µM, FC‐A 50 µM, 100 mM ammonium acetate (pH 6.8), 0.5% DMSO; 3 replicates
Procedure: as §4

14‐3‐3σ/ERα complex = experiment: HDX‐MS of 14‐3‐3σ/ERα complex with and without FC‐A; format: binding
Procedure: as §1, §2, §3

14‐3‐3/LRRK2 complex [6] = experiment: Native MS of 14‐3‐3σ/LRRK2 with FC‐A; format: binding; conditions: 14‐3‐3 5 µM, LRRK2 1:2 ratio, FC‐A 50 µM (1:2:10); Figure S14e; proposed explanation of HDX protection
Procedure: as §4

14-3-3•LRRK2 complex = conditions: Fig. S3; protein partner occupies the FC-A binding site; ref PDB 5MY9; cited from earlier work
Excerpt: (§6) Top: Insert of the amphipathic binding groove of 14-3-3 showing binding of FC-A (green) to the 14-3-3•ERα complex (pink) (PDB 4JDD). 14-3-3σ residues involved in binding FC-A and ERα are labelled in grey. […] For illustrati ...

[7] = system: 14-3-3•ERα protein complex; conditions: ref PDB 4JDD, cited from earlier work
Excerpt: as §6

14-3-3σ [8] = molecular target: T1, 14-3-3σ (UniProt P31947 1-248); experiment: HDX-MS; 14-3-3σ (100 µM) incubated with ERα peptide (100 µM) or LRRK2 peptide (200 µM), with or without FC-A (1 mM), 10 min on ice, in 25 mM HEPES, 200 mM NaCl, 10 mM MgCl2 pH 8.0, 10% DMSO; diluted tenfold in 100 mM ammonium acetate 99.9% D2O pD 7.2; labelled 10 min, 5 h and 24 h at room temperature; deuterium uptake read on 14-3-3σ peptides (pepsin/nepenthesin-2); conditions: both partners purified
T1 construct: 14-3-3 protein sigma, full length
T1 sequence (looked up): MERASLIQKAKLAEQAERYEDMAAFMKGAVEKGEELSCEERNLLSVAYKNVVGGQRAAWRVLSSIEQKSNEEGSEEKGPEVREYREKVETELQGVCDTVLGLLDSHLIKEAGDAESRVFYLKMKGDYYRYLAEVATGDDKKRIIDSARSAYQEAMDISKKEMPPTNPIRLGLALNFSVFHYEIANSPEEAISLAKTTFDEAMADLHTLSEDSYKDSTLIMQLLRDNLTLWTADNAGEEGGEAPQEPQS

## Ac‐NLQRHSN(pS)LGPIFDH‐CONH2 [LRRK2, lypholized LRRK2_928‐942 15mer peptide, phosphorylated mimetic of leucine‐rich repeat kinase 2]
14‐3‐3σ
  protection of 14‐3‐3σ from deuterium exchange upon peptide binding: identical areas of protection were observed upon LRRK2 binding; also recorded: the level of protection decreased relative to ERα
14‐3‐3σ; pD 7.2, room temperature
  protection of 14‐3‐3σ from deuterium exchange at H8 upon peptide binding: protection was also observed at H8
14‐3‐3 [1]
  binding affinity for 14‐3‐3 relative to ERα: lower binding affinity

## tyrosine hydroxylase: protein partner titrated in a previous FRET study of 14‐3‐3 dimerization
14‐3‐3 [2]
  14‐3‐3 dimer stability upon titration: increased dimer stability

## Ac‐KYYITGEAEGFPA(pT)V‐COOH (Ac-KYYITGEAEGFPA[pT]V-OH) [ERα, lypholized ERα581‐595 15mer peptide, phosphorylated mimetic of estrogen receptor α]
14-3-3σ [3]
  ERα complexes with 14-3-3 observed by native MS: singly and doubly bound ERα is observed in complex
14‐3‐3σ
  protection of 14‐3‐3σ from deuterium exchange upon peptide binding: Protection from deuterium labelling occurs; also recorded: peptides located in helices H3, H7 and H9 showed significant levels of protection after 24 h
14‐3‐3σ; pD 7.2, room temperature
  protection of 14‐3‐3σ from deuterium exchange at H8 upon peptide binding: protection was also observed at H8
  dynamics and flexibility of 14‐3‐3 dimer interface (residues 85–100 on H4, 26–36 on H2) upon ERα binding: a reduction in dynamics and protein flexibility
14‐3‐3/ERα; in the presence of FC‐A
  Kd: 100 ± 30 nM
14‐3‐3 [4]
  Kd: 1600 ± 300 nM

## C=CC(C)(C)OC[C@H]1O[C@H](O[C@@H]2C3=C([C@H](C)COC(C)=O)C[C@H](O)[C@]3(C)/C=C3/[C@@H](COC)CC[C@H]3[C@@H](C)[C@H]2O)[C@H](O)[C@@H](OC(C)=O)[C@@H]1O [FC‐A, Fusicoccin A]
14‐3‐3ζ /E6 oncoprotein
  conformational change of 14‐3‐3ζ upon addition of FC‐A: closure of H9
14‐3‐3/LRRK2 complex [5]; diluted tenfold into D2O buffer pD 7.2, room temperature, 10% DMSO
  additional protection of 14‐3‐3/LRRK2 in regions of the LRRK2 binding interface upon FC‐A addition: No additional protection was observed in regions involved in the LRRK2 binding interface suggesting no stabilization effect
14‐3‐3/LRRK2 complex [5]; pD 7.2, room temperature
  level of protection of residues 37 to 45 (FC‐A binding region) in 14‐3‐3/LRRK2 upon FC‐A addition: ~8%
14-3-3σ/ERα
  shift of binding equilibrium upon FC-A addition, native MS: the binding equilibrium is shifted to the fully stabilized ternary complex
14‐3‐3σ/ERα complex; HDX‐MS, 14‐3‐3σ 100 µM, ERα 100 µM, FC‐A 1 mM, diluted tenfold into D2O buffer pD 7.2, room temperature, 10 min, 5 h, 24 h, 10% DMSO, n = 3
  additional protection from deuterium exchange of 14‐3‐3σ/ERα upon FC‐A addition: additional protection was observed in several peptides; also recorded: increased protection on H3, H7 and H9; also recorded: protection toward the N‐terminus of H3 and H5 between residues 37–45 and 117–122; also recorded: between residues 85–100 on H4 and residues 26–36 on H2; also recorded: additional protection from deuterium labelling
14‐3‐3σ/ERα complex; HDX‐MS, pD 7.2, room temperature
  closure of H9 upon FC‐A addition to 14‐3‐3σ/ERα: Evidence of this H9 closure was not observed
14‐3‐3σ/ERα complex; difference plot over all time points (10 min, 5 h, 24 h)
  peptides with main differences in HDX uptake, 14‐3‐3σ/ERα vs 14‐3‐3σ/ERα/FC‐A: peptides 23–35, 45-51, 71-73, 92-114 and 120-122
14‐3‐3/ERα; FC‐A
  increase of 14‐3‐3/ERα affinity by the molecular glue: > 10 fold
14‐3‐3/LRRK2 complex [6]
  interaction between FC‐A and the 14‐3‐3/LRRK2 complex: low affinity interaction
14-3-3•LRRK2 complex
  stabilization of 14-3-3•LRRK2 complex by FC-A: does not stabilize
[7]; Fig. S3, PDB 4JDD
  stabilization of 14-3-3•ERα complex by FC-A: binds and stabilizes
[7]; Fig. S3
  14-3-3σ/ERα residues interacting with FC-A: N42, D215 and K122 interact with FC-A

B1: LRRK2_(928-942)pS935 15mer peptide of leucine-rich repeat kinase 2 (peptide)
peptide: NLQRHSNSLGPIFDH
HELM: PEPTIDE1{[ac].N.L.Q.R.H.S.N.[O=C([C@H](COP(=O)(O)O)N[*:1])[*:2]].L.G.P.I.F.D.H.[am]}$$$$V2.0
SMILES: CC[C@H](C)[C@H](NC(=O)[C@@H]1CCCN1C(=O)CNC(=O)[C@H](CC(C)C)NC(=O)[C@H](COP(=O)(O)O)NC(=O)[C@H](CC(N)=O)NC(=O)[C@H](CO)NC(=O)[C@H](Cc1c[nH]cn1)NC(=O)[C@H](CCCNC(=N)N)NC(=O)[C@H](CCC(N)=O)NC(=O)[C@H](CC(C)C)NC(=O)[C@H](CC(N)=O)NC(C)=O)C(=O)N[C@@H](Cc1ccccc1)C(=O)N[C@@H](CC(=O)O)C(=O)N[C@@H](Cc1c[nH]cn1)C(N)=O
notes: leucine-rich repeat kinase 2, residues 928-942, phosphorylated at S935; source: synthetic peptide (Synpeptide Ltd)
14-3-3σ [8]
  binding result: binds

B2: ERα_(581-595)pT594 15mer peptide of estrogen receptor α (peptide)
peptide: Ac-KYYITGEAEGFPA[pT]V-OH
notes: estrogen receptor α, residues 581-595, phosphorylated at T594 ('mode 3' C-terminal motif); source: synthetic peptide (Synpeptide Ltd)
14-3-3σ [8]
  binding result: binds
